Source: US8785468B2, “Phenylalanine amide derivatives useful for treating insulin-related diseases and conditions” (Amgen Inc., priority 2009, dated 2014)
pEC50: −log10 of the molar value. Where a name gives a salt, the structure may show the parent alone.

The molecules below were run against T1, human receptor found in pancreatic islet cells (Homo sapiens, UniProt Q7Z601) (assay: Activation of intracellular IP3 signaling in transfected cells (Activation Assay)). Conditions: calculated from IP3 concentration measurements in cells transfected with the human receptor.
T1 sequence (Q7Z601 1-462): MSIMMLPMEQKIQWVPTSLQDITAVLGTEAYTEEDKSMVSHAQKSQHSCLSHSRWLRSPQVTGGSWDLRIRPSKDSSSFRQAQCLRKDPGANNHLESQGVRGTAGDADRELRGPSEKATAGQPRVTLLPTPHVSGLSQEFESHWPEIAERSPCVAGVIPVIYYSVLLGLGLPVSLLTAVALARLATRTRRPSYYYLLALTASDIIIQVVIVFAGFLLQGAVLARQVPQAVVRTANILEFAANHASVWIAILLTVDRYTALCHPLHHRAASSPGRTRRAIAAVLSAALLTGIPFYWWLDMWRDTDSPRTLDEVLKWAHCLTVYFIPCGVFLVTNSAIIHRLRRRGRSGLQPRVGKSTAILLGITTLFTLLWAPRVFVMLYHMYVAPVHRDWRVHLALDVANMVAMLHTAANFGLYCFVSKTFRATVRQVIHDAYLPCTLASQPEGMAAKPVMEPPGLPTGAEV
Assay type: cell-based
Description: Table 12 provides exemplary compounds that were prepared and assessed, following protocols known to those of skilled in the art, for activation of intracellular inositol trisphosphate (IP3) signaling pathways that lead to elevation of intracellular calcium concentration. EC50 values provided in Table 12 were calculated from IP3 concentration measurements in cells transfected with a human receptor found in pancreatic islet cells, inter alia.

Row | Compound | pEC50
1 | O=C(Nc1cnc(-c2ccncc2)s1)[C@H](Cc1ccc(F)cc1)NCc1cscn1 [Example 5.2, (S)-3-(4-Fluorophenyl)-N-(2-(pyridin-4-yl)thiazol-5-yl)-2-(thiazol-4-ylmethylamino)propanamide] | 7.00 to 7.30
2 | CN(C)C(=O)c1cc(NC(=O)[C@H](Cc2ccccc2)NCc2cscn2)cc(-c2ccncc2)c1 [Example 55, (S)—N,N-Dimethyl-3-(3-phenyl-2-(thiazol-4-ylmethylamino)propanamido)-5-(pyridin-4-yl)benzamide] | 6.00 to 7.00
3 | Nc1cccc(-c2cccc(NC(=O)[C@H](Cc3ccccc3)NCc3cscn3)c2)c1 [Example 40, (S)—N-(3′-aminobiphenyl-3-yl)-3-phenyl-2-(thiazol-4-ylmethylamino)propanamide] | 5.00 to 6.00
4 | O=C([C@H](Cc1ccccc1)NCc1cscn1)N1CCc2ccc(-c3cncnc3)cc21 [Example 84, (S)-3-Phenyl-1-(6-(pyrimidin-5-yl)indolin-1-yl)-2-(thiazol-4-ylmethylamino)propan-1-one] | 5.00 to 6.00
5 | Cn1cc(-c2ccc3c(c2)N(C(=O)[C@@H](N)Cc2ccccc2)CC3)cn1 [Example 82, (2S)-2-Amino-1-(6-(1-methyl-1H-pyrazol-4-yl)indolin-1-yl)-3-phenylpropan-1-one hydrochloride] | 5.00 to 6.00
6 | Cc1cc(-c2cc(Cl)cc(NC(=O)[C@H](Cc3ccccc3)NCc3ccccn3)c2)ccn1 [Example 46, (2S)—N-(3-chloro-5-(2-methylpyridin-4-yl)phenyl)-3-phenyl-2-(pyridin-2-ylmethylamino)propanamide] | 7.00 to 7.30
7 | CNc1cc(-c2nnc(NC(=O)[C@H](Cc3ccc(F)cc3)NCc3cscn3)s2)ccn1 [Example 8.2, (2S)-3-(4-fluorophenyl)-N-(5-(2-(methylamine)pyridine-4-yl)-1,3,4-thiadiazol-2-yl)-2-(thiazol-4-ylmethylamino)propanamide] | 7.00 to 7.30
8 | Cc1cc(-c2cc(-c3n[nH]c(=S)o3)c3c(c2)N(C(=O)[C@H](Cc2ccccc2)NCc2cscn2)CC3)ccn1 [Example 66, (2S)-1-(6-(2-Methylpyridin-4-yl)-4-(5-thioxo-4,5-dihydro-1,3,4-oxadiazol-2-yl)indolin-1-yl)-3-phenyl-2-(thiazol-4-ylmethylamino)propan-1-one] | > 7.30
9 | O=C(O)CN[C@@H](Cc1ccccc1)C(=O)Nc1cc(-c2ccncc2)nn1CC(F)(F)F [Example 24, (S)-2-(1-Oxo-3-phenyl-1-(3-(pyridin-4-yl)-1-(2,2,2-trifluoroethyl)-1H-pyrazol-5-ylamino)propan-2-ylamino)acetic acid] | > 7.30
10 | Cn1nc(-c2ccncc2)cc1NC(=O)[C@H](Cc1ccccc1)NCc1ccccn1 [Example 17.3, (S)—N-(1-Methyl-3-(pyridin-4-yl)-1H-pyrazol-5-yl)-3-phenyl-2-(pyridin-2-ylmethylamino)propanamide] | 7.00 to 7.30
11 | Cc1cc(-c2ccc3c(c2)N(C(=O)[C@H](Cc2ccccc2)NCc2cscn2)CC3)ccn1 [Example 56, (2S)-1-(6-(2-Methylpyridin-4-yl)indolin-1-yl)-3-phenyl-2-(thiazol-4-ylmethylamino)propan-1-one] | 7.00 to 7.30
12 | O=C([C@H](Cc1ccccc1)NCc1cscn1)N1CCc2ccc(-c3ccc(F)cc3)cc21 [Example 85, (S)-1-[6-(4-Fluoro-phenyl)-2,3-dihydro-indol-1-yl]-3-phenyl-2-[(thiazol-4-ylmethyl)-amino]-propan-1-one Trifluoroacetate] | 6.00 to 7.00
13 | O=C(Nc1cccc(-c2ccccc2)c1)[C@H](Cc1ccccc1)NCc1cscn1 [Example 48] | 6.00 to 7.00
14 | COC(=O)C1CN(Cc2cc(NC(=O)[C@H](Cc3ccccc3)NCc3cscn3)cc(-c3ccnc(C)c3)c2)C1 [Example 79] | 6.00 to 7.00
15 | COc1ncc(-c2cn[nH]c2)cc1NC(=O)[C@H](Cc1ccccc1)NCc1ccccn1 [Example 15.2, (2S)—N-(2-methoxy-5-(1H-pyrazol-4-yl)pyridin-3-yl)-3-phenyl-2-(pyridin-2-ylmethylamino)propanamide] | 6.00 to 7.00
16 | O=C([C@H](Cc1ccccc1)NCc1cscn1)N1CCc2c(-c3nnco3)cc(-c3ccncc3)cc21 [Example 68, (2S)-1-(4-(1,3,4-Oxadiazol-2-yl)-6-(pyridin-4-yl)indolin-1-yl)-3-phenyl-2-(thiazol-4-ylmethylamino)propan-1-one] | 6.00 to 7.00
17 | Cn1cc(-c2cccc(NC(=O)[C@H](Cc3ccccc3)NCc3cscn3)c2)cn1 [Example 27, (2S)—N-(3-(1-Methyl-1H-pyrazol-4-yl)phenyl)-3-phenyl-2-(thiazol-4-ylmethylamino)propanamide] | 6.00 to 7.00
18 | COC(=O)CNC(=O)c1cc(-c2ccncc2)cc2c1CCN2C(=O)[C@H](Cc1ccccc1)NCc1cscn1 [Example 77, (S)-Methyl 2-(1-(3-phenyl-2-(thiazol-4-ylmethylamino)propanoyl)-6-(pyridin-4-yl)indoline-4-carboxamido)acetate] | 6.00 to 7.00

Other lines, results leading:

Row | pEC50 | Compound
19 | > 7.30 | Cc1cc(-c2cc(NC(=O)[C@H](Cc3ccc(F)cc3)NCC(=O)O)[nH]n2)ccn1 [Example 21.2, 2-((S)-3-(4-Fluorophenyl)-1-(3-(2-methylpyridin-4-yl)-1H-pyrazol-5-ylamino)-1-oxopropan-2-ylamino)acetic acid dihydrochloride]
20 | 5.00 to 6.00 | O=C(Nc1cccc(-c2ccncc2)c1)[C@@H](Cc1ccccc1)NCc1cncs1 [Example 34.6, (R)-3-Phenyl-N-(3-(pyridin-4-yl)phenyl)-2-(thiazol-5-ylmethylamino)propanamide trifluoroacetate]
21 | > 7.30 | CNc1cc(-c2cc(NC(=O)[C@H](Cc3ccccc3)NCc3ccc(F)cn3)n(C)n2)ccn1 [Example 23.1, (2S)-2-((5-Fluoropyridin-2-yl)methylamino)-N-(1-methyl-3-(2-(methylamino)pyridin-4-yl)-1H-pyrazol-5-yl)-3-phenylpropanamide]
22 | 6.00 to 7.00 | Cc1cc(-c2cc(NC(=O)[C@H](Cc3ccccc3)NCc3cscn3)cc(C(=O)O)c2)ccn1 [Example 49.2, 3-(2-Methylpyridin-4-yl)-5-((S)-3-phenyl-2-(thiazol-4-ylmethylamino)propanamido)benzoic acid TFA salt]
23 | 6.00 to 7.00 | CC(N[C@@H](Cc1ccccc1)C(=O)Nc1cccc(-c2ccncc2)c1)c1cscn1 (stereo partly drawn) [Example 34.19, (2S)-3-Phenyl-N-(3-(pyridin-4-yl)phenyl)-2-(1-(thiazol-4-yl)ethylamino)propanamide]
24 | 6.00 to 7.00 | Cn1cnnc1CN[C@@H](Cc1ccccc1)C(=O)Nc1cccc(-c2ccncc2)c1 [Example 34.20, (S)-2-((4-Methyl-4H-1,2,4-triazol-3-yl)methylamino)-3-phenyl-N-(3-(pyridin-4-yl)phenyl)propanamide]
25 | 5.00 to 6.00 | N[C@@H](Cc1ccccc1)C(=O)Nc1cc(-c2ccncc2)c[nH]c1=O [Example 25.2, (S)-2-amino-N-(2-oxo-5-(pyridin-4-yl)-1,2-dihydropyridin-3-yl)-3-phenylpropanamide diTFA]
26 | 6.00 to 7.00 | COc1ncc(-c2ccnc(C)c2)cc1NC(=O)[C@H](Cc1ccccc1)NCc1ccccn1 [Example 41.3, (2S)—N-(2-Methoxy-5-(2-methylpyridin-4-yl)pyridin-3-yl)-3-phenyl-2-(pyridin-2-ylmethylamino)propanamide]
27 | > 7.30 | CNc1cc(-c2cc(NC(=O)[C@H](Cc3ccc(F)cc3)NCc3ccc(F)cn3)n(C)n2)ccn1 [Example 23.6, (2S)-3-(4-Fluorophenyl)-2-((5-fluoropyridin-2-yl)methylamino)-N-(1-methyl-3-(2-(methylamino)pyridin-4-yl)-1H-pyrazol-5-yl)propanamide]
28 | 6.00 to 7.00 | O=C(O)c1cc(NC(=O)[C@H](Cc2ccccc2)NCc2nccs2)cc(-c2ccncc2)c1 [Example 45.3, (S)-3-(3-Phenyl-2-(thiazol-2-ylmethylamino)propanamido)-5-(pyridin-4-yl)benzoic acid]
